# Experiments:
# TrkB = molecular target: T1, TrkB (Homo sapiens, UniProt Q16620); test: Test for measuring inhibition of TrkB kinase (Millipore or Kinome Scan, manufacturer's protocols); assay type: biochemical; conditions: read-out: Enzymatic inhibition at 10 nM (%) TrkB
# T1 construct: purchased Millipore or Kinome Scan (DiscoverX)
# Source text: (§1) Test for Measuring Inhibition of TrkA, TrkB or TrkC Kinase
# (§2) These kinases are produced by Millipore or Kinome Scan (DiscoverX) and are screened according to the manufacturer's protocols.
# TrkA = molecular target: T2, TrkA (Homo sapiens, UniProt P04629); test: Test for measuring inhibition of TrkA kinase (Millipore or Kinome Scan, manufacturer's protocols); assay type: biochemical; conditions: read-out: Enzymatic inhibition at 10 nM (%) TrkA
# T2 construct: purchased Millipore or Kinome Scan (DiscoverX)
# T2 sequence (P04629 33-796): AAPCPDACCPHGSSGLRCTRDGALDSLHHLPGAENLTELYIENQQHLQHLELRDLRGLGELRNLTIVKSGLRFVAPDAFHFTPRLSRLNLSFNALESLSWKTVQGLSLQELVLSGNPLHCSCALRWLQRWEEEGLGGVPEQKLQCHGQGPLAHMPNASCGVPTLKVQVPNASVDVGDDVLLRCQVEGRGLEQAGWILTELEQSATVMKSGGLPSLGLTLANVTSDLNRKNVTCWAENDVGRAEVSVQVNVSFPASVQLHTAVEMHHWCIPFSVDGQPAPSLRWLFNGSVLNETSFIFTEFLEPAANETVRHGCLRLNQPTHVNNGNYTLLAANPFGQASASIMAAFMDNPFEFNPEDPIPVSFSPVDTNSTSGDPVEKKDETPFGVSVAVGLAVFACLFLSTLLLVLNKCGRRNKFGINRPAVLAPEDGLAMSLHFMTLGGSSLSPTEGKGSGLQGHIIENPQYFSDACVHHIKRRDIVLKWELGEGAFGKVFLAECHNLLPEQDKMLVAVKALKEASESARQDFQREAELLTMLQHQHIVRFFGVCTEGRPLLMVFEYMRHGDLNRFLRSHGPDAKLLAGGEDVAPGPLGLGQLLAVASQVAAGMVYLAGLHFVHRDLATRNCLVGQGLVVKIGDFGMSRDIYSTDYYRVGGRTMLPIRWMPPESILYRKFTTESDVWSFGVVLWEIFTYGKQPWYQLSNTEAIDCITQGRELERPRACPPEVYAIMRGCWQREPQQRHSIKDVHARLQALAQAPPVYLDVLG
# Source text: as §1, §2
# TrkB (or NTRK2) = molecular target: T3, TrkB (or NTRK2) (Homo sapiens, UniProt Q16620); test: In vitro kinase glo plus-based kinase assay, TrkB; assay type: biochemical; conditions: comparative experiments; 40 μM ATP
# T3 construct: using the soluble intracellular segment of theses receptors, containing the kinase activity; purchased Invitrogen
# T3 sequence (Q16620 455-822 limits assumed): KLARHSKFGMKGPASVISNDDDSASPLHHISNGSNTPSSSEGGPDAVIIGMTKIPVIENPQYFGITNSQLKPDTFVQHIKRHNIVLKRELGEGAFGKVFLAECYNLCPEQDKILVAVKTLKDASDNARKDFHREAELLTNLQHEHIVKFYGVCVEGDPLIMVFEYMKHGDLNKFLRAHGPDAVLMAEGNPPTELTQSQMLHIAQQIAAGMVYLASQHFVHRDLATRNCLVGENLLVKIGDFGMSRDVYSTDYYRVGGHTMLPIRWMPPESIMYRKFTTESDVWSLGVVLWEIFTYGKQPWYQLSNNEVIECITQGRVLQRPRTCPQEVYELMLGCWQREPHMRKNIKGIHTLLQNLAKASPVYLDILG
# Description: An in vitro kinase glo plus-based kinase assay (Promega) was developed in a 96 wells assay plate format to assess the inhibiting properties of compounds on tropomyosin related kinases (Trk) receptors, using the soluble intracellular segment of theses receptors, containing the kinase activity (TrkA (or NTRK1; 400 ng/well; […] Invitrogen)). […] Plates were removed from incubator, and 50 μl of kinase-glo plus was added to each well, followed by a 10 minute incubation at room temperature. The luciferase-induced luminescence, which is proportional to the ATP remaining in the well, was measured on a luminometer. Controls on each plates included wells with the kinase alone (maximal ATP consumption, or 0% inhibition), wells without the kinase (maximal ATP signal or 100% inhibition), and wells with 20 μM staurosporine (positive control of inhibition). […] N=42; […]
# TrkA (or NTRK1) = molecular target: T4, TrkA (or NTRK1) (Homo sapiens, UniProt P04629); test: In vitro kinase glo plus-based kinase assay, TrkA; assay type: biochemical; conditions: comparative experiments; 30 μM ATP
# T4 construct: using the soluble intracellular segment of theses receptors, containing the kinase activity; purchased Millipore
# T4 sequence (P04629 440-796 limits assumed): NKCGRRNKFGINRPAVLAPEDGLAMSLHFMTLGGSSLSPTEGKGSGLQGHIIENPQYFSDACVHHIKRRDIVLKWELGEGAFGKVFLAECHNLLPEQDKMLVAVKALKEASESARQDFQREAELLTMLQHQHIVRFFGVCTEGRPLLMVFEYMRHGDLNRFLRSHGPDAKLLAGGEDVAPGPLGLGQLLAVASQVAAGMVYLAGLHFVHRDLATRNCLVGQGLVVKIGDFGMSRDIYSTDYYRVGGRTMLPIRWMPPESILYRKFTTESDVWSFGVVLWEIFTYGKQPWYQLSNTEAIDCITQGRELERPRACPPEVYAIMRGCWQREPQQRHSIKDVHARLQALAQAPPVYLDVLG
# Description: Plates were removed from incubator, and 50 μl of kinase-glo plus was added to each well, followed by a 10 minute incubation at room temperature. The luciferase-induced luminescence, which is proportional to the ATP remaining in the well, was measured on a luminometer. Controls on each plates included wells with the kinase alone (maximal ATP consumption, or 0% inhibition), wells without the kinase (maximal ATP signal or 100% inhibition), and wells with 20 μM staurosporine (positive control of inhibition).
# TrkC = molecular target: T5, TrkC (Homo sapiens, UniProt Q16288); test: Test for measuring inhibition of TrkC kinase (Millipore or Kinome Scan, manufacturer's protocols); assay type: biochemical; conditions: read-out: Enzymatic inhibition at 10 nM (%) TrkC
# T5 construct: purchased Millipore or Kinome Scan (DiscoverX)
# T5 sequence (Q16288 32-839): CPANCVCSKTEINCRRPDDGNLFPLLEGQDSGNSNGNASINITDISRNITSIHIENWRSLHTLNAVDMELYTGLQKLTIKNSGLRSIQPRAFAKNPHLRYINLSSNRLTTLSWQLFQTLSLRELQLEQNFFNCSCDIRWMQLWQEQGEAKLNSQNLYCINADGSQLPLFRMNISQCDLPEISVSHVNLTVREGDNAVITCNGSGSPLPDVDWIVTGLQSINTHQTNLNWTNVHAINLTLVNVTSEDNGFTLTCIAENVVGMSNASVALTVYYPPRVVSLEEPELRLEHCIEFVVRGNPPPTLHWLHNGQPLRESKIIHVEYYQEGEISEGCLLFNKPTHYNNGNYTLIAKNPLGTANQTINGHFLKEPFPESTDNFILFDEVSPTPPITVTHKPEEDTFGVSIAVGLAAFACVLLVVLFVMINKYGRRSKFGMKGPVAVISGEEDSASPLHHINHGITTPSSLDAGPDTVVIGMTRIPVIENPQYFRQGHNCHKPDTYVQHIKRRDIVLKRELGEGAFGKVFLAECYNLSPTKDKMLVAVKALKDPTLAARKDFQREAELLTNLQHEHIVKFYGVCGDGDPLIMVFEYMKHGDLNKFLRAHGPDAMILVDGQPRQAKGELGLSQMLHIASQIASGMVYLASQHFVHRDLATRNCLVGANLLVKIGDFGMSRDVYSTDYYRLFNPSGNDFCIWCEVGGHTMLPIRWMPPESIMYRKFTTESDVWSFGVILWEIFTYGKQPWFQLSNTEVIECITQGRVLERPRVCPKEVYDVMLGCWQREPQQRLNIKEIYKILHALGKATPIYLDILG
# Source text: as §1, §2
# bone cancer pain = test: In vivo analgesic activity against chronic pain in a model of bone cancer pain (NCTC 2472 fibrosarcoma cells in tibia); set-up: species or system mouse; conditions: C3H/HeNCrl mice
# Description: In Vivo Analgesic Activity Against Chronic Pain in a Model of Bone Cancer Pain
# Bone cancer produces one of the most painful conditions that affect humans and animals. […] Several models of murine osteosarcoma-induced pain have been developed (Pacharinsak and Beitz, Animal models of cancer pain. Comp Med. 2008 June; 58:220-33.).
# We induced bone cancer pain by implanting 10 μl of PBS containing 2×10^5 NCTC 2472 osteolytic fibrosarcoma cells into the tibia of 5-6 week-old C3H/HeNCrl mice under isoflurane anesthesia. The presence of these cells induces osteolytic lesions in bone due to both an increase in the number of osteoclasts and to their activation, which leads to the destruction of bone tissue and the invasion of the adjacent soft tissue and pain related behaviours. Pain-related behaviours were evaluated both prior to and at 3, 7, 10, 14 and 17 days following tumor cell injection. The following behaviors were evaluated: • Limb use during spontaneous ambulation on a scale of 0-4 where 0=normal use and 4=no use of the injected hind paw; • Light touch-evoked pain. Light touch induced flinching were measured after the 1 min period of non noxious stimulation of the tumor injected paw with a small paint brush. The numbers of flinches were recorded over 5 min. […]
# [1] = test system: formalin test (paw licking); test: In vivo analgesic activity in the formalin test; set-up: species or system rat; conditions: rats, second phase of the formalin test, vs. vehicle-treated animals, P<0.05
# Source text: In Vivo Analgesic Activity in the Formalin Test in Rats The method was adapted from Wheeler-Aceto et al. (Pain, 1990, 40:229-38) and Bardin et al. (2003, Pharmacology 67: 182-194). In the second phase of the test, Compound 30 inhibited paw licking by 44% vs. vehicle-treated animals (P<0.05 by ANOVA).
# [2] = test system: inflammatory pain induced by Complete Freund Adjuvant (CFA); test: In vivo analgesic activity against acute and chronic inflammatory pain induced by Complete Freund Adjuvant (CFA); conditions: rat
# Source text: In Vivo Analgesic Activity Against Acute and Chronic Inflammatory Pain Induced by Complete Freund Adjuvant (CFA)
# Male Sprague-Dawley rats [Crl:OFA(SD) Charles River Lyon, France] weighing 160-180 g upon arrival were used. Rats were first daily habituated to handling and to the test apparatus used for the von-Frey and hot-plate models one week before the induction of inflammation. On the following Monday, they were subjected to nociceptive tests for determination of basal scores. Then, rats will be given a 100 μl subcutaneous injection of CFA (1 mg/1 ml; Sigma) into the plantar surface of the right hind paw (day 0: D0). Saline was injected by the same route in the placebo group.
# Then each rat was placed on an elevated plastic mesh in a clear plastic cage and the number of spontaneous flinches (measurement of spontaneous pain) was recorded during 10 min. Mechanical allodynia was assessed using the von Frey Hair test. Each rat was placed on an elevated plastic mesh in a clear plastic cage and allowed to adapt to the testing environment for at least 5 min. The von Frey Hairs (Semmes-Weinstein monofilaments, Stoelting Ill., USA; 0.6, 1.4, 2, 4, 6, 8, 10, and 15 g) was applied to the plantar surface of the injected paw from below the mesh floor for […] in the ascending order. The threshold was determined as the lowest force that evoked a withdrawal response. The test was repeated three times with an interval of 5 min between each test. The paw withdrawal score to the tactile stimulus was determined as the average of the 3 measurements. Animals received intraperitoneal or oral injections of test compounds. […] Compound completely or nearly completely reversed spontaneous pain from 0.16 mg/kg and mechanical allodynia from 2.5 mg/kg.
# NGF-induced hyperalgesia = test: In vivo analgesic activity against NGF-induced hyperalgesia (hot plate); conditions: mouse; for inhibition of NGF-induced hyperalgesia (latency time): given 30 min before NGF, hot plate four hours after NGF
# Description: In Vivo Analgesic Activity Against NGF-Induced Hyperalgesia Compounds of general formula (I), and particularly compound 30 have been tested in vivo in the mouse receiving an intraplantar injection of NGF. This treatment elicits thermal hyperalgesia (Schuligoi et al., 1998, Neuroscience Letters 252:147-149). Briefly, male mice received a 10 μl subcutaneous injection of NGFβ (1 μg; SIGMA) into the plantar surface of the right hind paw. Following the injection, mice were returned to their cages. Four hours after NGF injection, mice were placed on the centre of the hot plate analgesimeter (BIO-HC2.00, Bioseb, France), and the latency time to the first brisk lift or lick of a hind paw or jumping will be recorded. A maximum cut-off time of 60 sec is used to prevent tissue damage. Results are given as the mean±s.e.m. of the latency time. Test compounds were given 30 min before NGF injection.
# T1 sequence (Q16620 32-822): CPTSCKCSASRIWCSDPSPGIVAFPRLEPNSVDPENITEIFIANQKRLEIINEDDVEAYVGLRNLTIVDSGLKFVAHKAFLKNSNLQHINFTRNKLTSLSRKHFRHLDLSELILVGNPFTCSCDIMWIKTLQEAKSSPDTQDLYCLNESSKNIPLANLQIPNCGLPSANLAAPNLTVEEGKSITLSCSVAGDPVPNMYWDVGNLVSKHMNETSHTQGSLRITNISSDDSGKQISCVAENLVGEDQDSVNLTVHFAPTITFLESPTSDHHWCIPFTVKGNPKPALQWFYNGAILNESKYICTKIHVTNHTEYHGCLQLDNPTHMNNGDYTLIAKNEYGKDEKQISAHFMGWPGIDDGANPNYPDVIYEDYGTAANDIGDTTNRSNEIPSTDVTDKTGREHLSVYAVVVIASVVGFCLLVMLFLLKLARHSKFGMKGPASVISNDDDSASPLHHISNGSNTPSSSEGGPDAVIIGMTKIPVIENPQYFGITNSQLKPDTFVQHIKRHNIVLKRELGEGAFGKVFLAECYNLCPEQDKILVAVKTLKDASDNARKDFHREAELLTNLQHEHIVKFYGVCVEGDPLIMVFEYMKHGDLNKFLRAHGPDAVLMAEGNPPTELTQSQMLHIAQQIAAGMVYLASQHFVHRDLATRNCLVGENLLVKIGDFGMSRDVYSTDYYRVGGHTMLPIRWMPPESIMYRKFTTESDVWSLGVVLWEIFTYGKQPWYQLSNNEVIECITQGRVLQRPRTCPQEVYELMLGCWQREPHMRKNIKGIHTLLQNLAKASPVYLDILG
SMILES,inhibition at 0.01 µM (TrkB),inhibition at 0.01 µM (TrkA),IC50 (TrkB (or NTRK2)),IC50 (TrkA (or NTRK1)),inhibition at 0.01 µM (TrkC),further results
CN1CCN(c2ccc(C(=O)Nc3n[nH]c4nc(Nc5ccc(F)cc5F)ncc34)c(NC3CCOCC3)c2)CC1 [B],–,–,18 µM,3.3 µM,–,–
"CN1CCN(c2ccc(C(=O)Nc3n[nH]c4nc(N)c(Sc5cc(F)cc(F)c5)cc34)c(NC3CCOCC3)c2)CC1 [Compound 14-11, N-(6-amino-5-(3,5-difluorophenylthio)-1H-pyrazolo[3,4-b]pyridin-3-yl)-4-(4-methylpiperazin-1-yl)-2-(tetrahydro-2H-pyran-4-ylamino)benzamide]",88%,97.4%,–,–,93.4%,–
"CN1CCN(c2ccc(C(=O)Nc3n[nH]c4ncc(Sc5cc(F)cc(F)c5)cc34)c(NC3CCOCC3)c2)CC1 [Compound 30, N-(5-(3,5-difluorophenylthio)-1-H-pyrazolo[3,4-b]pyridine-3-yl)-4-(4-methylpiperazine-1-yl)-2-(tetrahydro-2H-pyran-4-ylamino)benzamide]",84%,93.8%,0.031 µM,0.045 µM,64%,"light touch-evoked flinching (bone cancer pain; 2.5 mg/kg i.p. chronically from day 7, effect from day 8, FIG. 3B): significantly reduced; limb use score (bone cancer pain; 2.5 mg/kg i.p. chronically from day 7, effect from day 10, FIG. 3A): significantly reduced; inhibition of paw licking [1]: 44%; dose from which spontaneous pain was completely or nearly completely reversed ([2]; flinches): ≥ 0.16 mg/kg; inhibition of spontaneous flinches (acute inflammatory pain) ([2]; intraperitoneal injection, FIG. 2A): dose-dependently inhibited; inhibition of mechanical allodynia (von Frey) ([2]; oral administration, FIG. 2B): dose-dependently inhibited; dose from which mechanical allodynia was completely or nearly completely reversed ([2]; von Frey): ≥ 2.5 mg/kg; doses at which complete or nearly complete reversion of NGF-induced hyperalgesia occurred (NGF-induced hyperalgesia; intraperitoneal or oral route, P<0.05 vs NGF alone): ≤ 10 mg/kg; inhibition of NGF-induced hyperalgesia (latency time) (NGF-induced hyperalgesia; intraperitoneal route, FIG. 1A): dose-dependently inhibited; inhibition of NGF-induced hyperalgesia (latency time) (NGF-induced hyperalgesia; oral route, FIG. 1B): dose-dependently inhibited"
CN1CCN(c2ccc(C(=O)Nc3n[nH]c4nc(Nc5cc(F)cc(F)c5)ncc34)c(NC3CCOCC3)c2)CC1 [A],–,–,> 100 µM,~10 µM,–,–
Nc1n[nH]c2ncc(Sc3cc(F)cc(F)c3)cc12 [D],–,–,35 µM,22 µM,–,–
CN1CCN(c2ccc(C(=O)Nc3n[nH]c4nc(Nc5ccc(F)cc5F)ccc34)c(NC3CCOCC3)c2)CC1 [C],–,–,5.8 µM,2.1 µM,–,–

# More lines, main results first:
inhibition at 0.01 µM (TrkB),inhibition at 0.01 µM (TrkA),IC50 (TrkB (or NTRK2)),IC50 (TrkA (or NTRK1)),inhibition at 0.01 µM (TrkC),SMILES,further results
98%,55%,–,–,–,"CN1CCN(c2ccc(C(=O)Nc3n[nH]c4ncc(Cc5cc(F)cc(F)c5)cc34)c(NC3CCOCC3)c2)CC1 [Compound 30-9, N-(5-(3,5-difluorobenzyl)-1H-pyrazolo[3,4-b]pyridin-3-yl)-4-(4-methylpiperazin-1-yl)-2-(tetrahydro-2H-pyran-4-ylamino)benzamide]",–
93%,97.8%,–,–,96.8%,"CN1CCN(c2ccc(C(=O)Nc3n[nH]c4ncc(S(=O)(=O)c5cc(F)cc(F)c5)cc34)c(NC3CCOCC3)c2)CC1 [Compound 27-1, N-(5-(3,5-difluorophenylsulfonyl)-1H-pyrazolo[3,4-b]pyridin-3-yl)-4-(4-methylpiperazin-1-yl)-2-(tetrahydro-2H-pyran-4-ylamino)benzamide]",–
96.6%,99%,–,–,97.3%,"CN1CCN(c2ccc(C(=O)Nc3n[nH]c4ncc(S(=O)(=O)Nc5cc(F)cc(F)c5)cc34)c(NC3CCOCC3)c2)CC1 [Compound 30-8, N-(5-(N-(3,5-difluorophenyl)sulfamoyl)-1H-pyrazolo[3,4-b]pyridin-3-yl)-4-(4-methylpiperazin-1-yl)-2-(tetrahydro-2H-pyran-4-ylamino)benzamide]",–

# From patent publication US9381195B2, “Derivatives of azaindazole or diazaindazole type for treating pain” (PIERRE FABRE MEDICAMENT, priority 2012, dated 2016)
